21 compounds from patent publication US5686486A, “4-hydroxy-benzopyran-2-ones and 4-hydroxy-cycloalkyl[b]pyran-2-ones useful to treat retroviral infections” (priority 1995, dated 1997) can be followed below.

Structures can show the parent of a compound that is named as a salt. Where two headings read alike, the source gives them in different places.

This assay deals with HIV-1 protease (Human immunodeficiency virus type 1 group M subtype B, UniProt P04585). Description: biochemical. Conditions: for inhibition at 1 µM: read-out: HIV-1 Protease % Inhib, dose 1.000 uM; for inhibition at 100 µM: read-out: HIV-1 Protease % Inhib, dose 100.000 uM; for inhibition at 0.123 µM: read-out: HIV-1 Protease % Inhib, dose 0.123 uM. Put shortly:
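Percent inhibition derived from fluorescent cleavage product separated by filtration after streptavidin-bead capture of intact biotin/FITC substrate. Reaction: enzyme (10 μl, 0.1 μM stock) with substrate (20 μl, 0.2 μM stock) and compound, 1 h at room temperature in dark, pH 5.5 acetate buffer with 1.0 M NaCl and 0.05% NP-40.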

Where [1] appears, read: read-out: HIV-1 Protease % Inhib, dose 10.000 uM.
Setting [2] is: dose 1.100 uM, read-out: HIV-1 Protease % Inhib.
Where [3] appears, read: dose 3.300 uM, read-out: HIV-1 Protease % Inhib.
Setting [4] is: dose 10.000 uM, read-out: HIV-1 Protease % Inhib.
[5] abbreviates: dose 30.000 uM, read-out: HIV-1 Protease % Inhib.
Setting [6] is: read-out: HIV-1 Protease % Inhib, dose 0.370 uM.
Setting [7] is: read-out: HIV-1 Protease % Inhib, dose 1.100 uM.
The mark [8] stands for this setting: read-out: HIV-1 Protease % Inhib, dose 3.300 uM.
The mark [9] stands for this setting: read-out: HIV-1 Protease % Inhib, dose 30.000 uM.
[10] abbreviates: dose 0.370 uM, read-out: HIV-1 Protease % Inhib.

Turning to `CCC(c1cccc(NC(=O)CCN)c1)c1c(O)c2ccccc2oc1=O` (centres unmarked) [Example 24, 3-[1-[3-[(3-Amino-1-oxopropyl)amino]phenyl]propyl]-4-hydroxy-coumarin, trifluoroacetate (salt)], the inhibition at 1 µM was less than 10% and the inhibition at 100 µM amounted to 83.7%. In addition, the inhibition at 10 µM under setting [1] came to 24.2%.

Take `O=c1oc2c(c(O)c1C(c1ccccc1)C1CC1)CCCCC2CC1CCCCO1` (centres unmarked) [Example 190, 3-(Cyclopropylphenylmethyl)-6,7,8,9-tetrahydro4-hydroxy-9-[(tetrahydro-2H-pyran-2-yl)methyl]-cyclohepta[b]pyran-2(5H)-one]: the inhibition at 1.1 µM under setting [2] was found to be 35.9%. In addition, the inhibition at 3.3 µM under setting [3] worked out at 79.3%. The inhibition at 10 µM under setting [4] was found to be 96%. Besides, the inhibition at 30 µM under setting [5] worked out at 102%.

Consider `COc1ccc(S(=O)(=O)Nc2cccc(C(c3c(O)c4c(oc3=O)CCCCCC4)C3CC3)c2)cc1` (centres unmarked) [Example 275, N-[3-[Cyclopropyl(5,6,7,8,9, 10-hexahydro-4-hydroxy-2-oxo-2H-cycloocta[b]pyran-3-yl)methyl]phenyl]-4-methoxy-benzenesulfonamide], for which the inhibition at 0.123 µM turned out to be 79.3%. For the same compound, the inhibition at 0.37 µM under setting [6] is 120%. In addition, the inhibition at 1.1 µM under setting [7] came out at 128%. In addition, the inhibition at 3.3 µM under setting [8] was found to be 131%. The inhibition at 10 µM under setting [1] is 133%. Under setting [9], the inhibition at 30 µM is 131%.

Consider `CCCCC(c1cccc(NS(=O)(=O)c2ccc(C#N)cc2)c1)c1c(O)c2c(oc1=O)CCCCCC2` (centres unmarked) [Example 421, Benzenesulfonamide, 4-cyano-N-[3-[1-(5,6,7,8,9,10-hexahydro-4-hydroxy-2-oxo-2H-cycloocta[b]pyran-3-yl)pentyl]phenyl]-], for which the inhibition at 0.123 µM turned out to be 93.9%. Also, the inhibition at 0.37 µM under setting [6] amounted to 104%. Besides, the inhibition at 1.1 µM under setting [7] was 99.1%. Under setting [8], the inhibition at 3.3 µM amounted to 97.9%. For the same compound, the inhibition at 10 µM under setting [1] came to 108%. Further, the inhibition at 30 µM under setting [9] was determined as 90%.

With `O=c1oc2c(c(O)c1C(c1cccc(NS(=O)(=O)c3cc(Cl)cc(Cl)c3)c1)C1CC1)CCCCCC2` (centres unmarked) [Example 288, 3,5-Dichloro-N-[3-[cyclopropyl(5,6,7,8,9,10-hexahydro-4-hydroxy-2-oxo-2H-cycloocta[b]pyran-3-yl)methyl]phenyl]-benzenesulfonamide], the inhibition at 0.123 µM came out at 46.9%. The inhibition at 0.37 µM under setting [6] amounted to 79.1%. In addition, the inhibition at 1.1 µM under setting [7] was determined as 90.5%. For the same compound, the inhibition at 3.3 µM under setting [8] worked out at 92.9%. Further, the inhibition at 10 µM under setting [1] came to 105%. Besides, the inhibition at 30 µM under setting [9] came out at 101%.

With `CCNC(=O)Nc1cccc(C(c2c(O)c3c(oc2=O)CCCCCC3)C2CC2)c1` (centres unmarked) [Example 223, N-[3-[Cyclopropyl(5,6,7,8,9,10-hexahydro-4-hydroxy-2-oxo-2H-cycloocta[b]pyran-3-yl)methyl]phenyl]-N'-ethyl-urea], the inhibition at 0.123 µM was found to be 11.1%. The inhibition at 0.37 µM under setting [6] amounted to 31.3%. For the same compound, the inhibition at 1.1 µM under setting [7] came to 62.3%. The inhibition at 3.3 µM under setting [8] came out at 85.7%. The inhibition at 10 µM under setting [1] worked out at 102%. The inhibition at 30 µM under setting [9] came to 101%.

Turning to `CCC(c1cccc(NC(=O)CCc2c[nH]c3ccccc23)c1)c1c(O)c2ccccc2oc1=O` (stereo not drawn) [Example 79, Coumarin, 3-[α-ethyl-[[[2-(indol-3-yl)ethyl]carbonyl]amino]benzyl]-4-hydroxy-], the inhibition at 1 µM is less than 10% and the inhibition at 100 µM worked out at 80.9%. Also, under setting [1], the inhibition at 10 µM came out at 61%. In addition, for the setting “read-out: HIV-1 Protease IC50”, the IC50 worked out at 13.1 µM.

In the case of `CCCC(Cc1ccccc1)c1c(O)c2ccccc2oc1=O` (centres unmarked) [Example 147, 3-(1 -Benzyl-butyl)-4-hydroxy-chromen-2-one], the inhibition at 1 µM stood at 34.7% and the inhibition at 100 µM was determined as 96.5%. The inhibition at 10 µM under setting [1] is 86.3%.

As to `COc1cccc(OC)c1S(=O)(=O)Nc1cccc(C(c2c(O)c3c(oc2=O)CCCCCC3)C2CC2)c1` (centres unmarked) [Example 334, N-[3-[Cyclopropyl(5,6,7,8,9,10-hexahydro-4-hydroxy-2-oxo-2H-cycloocta[b]pyran-3-yl)methyl]phenyl]-2,6-dimethoxy-benzenesulfonamide], under setting [10], the inhibition at 0.37 µM was 13.6%. For the same compound, the inhibition at 1.1 µM under setting [2] came to 42.3%. Besides, the inhibition at 3.3 µM under setting [3] is 69%. Under setting [4], the inhibition at 10 µM was 87.6%. In addition, the inhibition at 30 µM under setting [5] was determined as 89.5%.

For `CCC(c1ccccc1)c1c(O)c2ccc(Cl)cc2oc1=O` (centres unmarked) [Example 92, Coumarin, 7-chloro-4-hydroxy-3-(1-phenylpropyl)-], the inhibition at 1 µM is less than 10% and the inhibition at 100 µM amounted to 113%. The inhibition at 10 µM under setting [1] came to 67.8%.

Turning to `COc1ccc2c(O)c(C(c3ccccc3)C3CC3)c(=O)oc2c1` (centres unmarked) [Example 38, 3-cyclopropylphenylmethyl-4-hydroxy-7-methoxy coumarin], the inhibition at 1 µM was 18.6% and the inhibition at 100 µM worked out at 93.4%. For the same compound, the half-maximal inhibitory concentration (IC50) (HIV-1 Protease IC50) was determined as 2.8 µM. Moreover, the inhibition at 10 µM under setting [1] came to 83.2%.

`CCS(=O)(=O)Nc1cccc(C(c2c(O)c3c(oc2=O)CCCCC3)C2CC2)c1` (centres unmarked) [Example 365, N-[3-[Cyclopropyl(2,5,6,7,8,9-hexahydro-4-hydroxy-2-oxocyclohepta[b]pyran-3-yl)methyl]phenyl]-ethanesulfonamide]: the inhibition at 0.123 µM was found to be 11.7%. Further, under setting [6], the inhibition at 0.37 µM was 31.1%. Moreover, the inhibition at 1.1 µM under setting [7] stood at 65.3%. The inhibition at 3.3 µM under setting [8] was 84.1%. Moreover, the inhibition at 10 µM under setting [1] was determined as 94.5%. The inhibition at 30 µM under setting [9] was determined as 95.8%.

Consider `CCC(c1cccc(NC(=O)C(NC(=O)OC(C)(C)C)C(C)C)c1)c1c(O)c2ccccc2oc1=O` (centres unmarked) [Example 42, Carbamic acid, [1-[[[3-[1-(4-hydroxy-2-oxo-2H-1-benzopyran-3-yl)propyl]phenyl]amino]carbonyl]-2-methylpropyl]-, 1,1-dimethylethyl ester], for which the inhibition at 1 µM is 11.5% and the inhibition at 100 µM stood at 112%. For the same compound, it took 9.9 µM to reach half-maximal inhibition (HIV-1 Protease IC50) (IC50). Also, under “dose 100.000 uM”, the “HIV-1 Protease % Inhib” value was determined as 102.8%. Besides, under setting [1], the inhibition at 10 µM amounted to 75.2%.

On to `CCC(c1ccc(OCC(O)CO)cc1)c1c(O)c2ccccc2oc1=O` (centres unmarked) [Example 100, Coumarin, 4-hydroxy-3-[1-[4-(2,3-dihydroxy)propoxyphenyl]propyl]-], for which the inhibition at 1 µM is less than 10% and the inhibition at 100 µM turned out to be 53%. Moreover, the “HIV-1 Protease % Inhib” value (dose 10.000 uM) was less than 10%. The “HIV-1 Protease % Inhib” value (dose 100.000 uM) was determined as 40.3%. Moreover, the inhibition at 10 µM under setting [1] came to 12.3%.

As for `CC(C)(c1ccccc1)c1c(O)c2ccccc2oc1=O` [Example 39, 3-(α,α-dimethylbenzyl)4-hydroxy coumarin], the inhibition at 1 µM stood at 13.8% and the inhibition at 100 µM was determined as 82%. 5 µM corresponded to half-maximal inhibition (HIV-1 Protease IC50) (IC50). Also, the inhibition at 10 µM under setting [1] worked out at 69.6%.

As for `CCC(c1ccccc1)c1c(O)c2ccc(OCCN3CCOCC3)cc2oc1=O` (centres unmarked) [Example 141, 4-Hydroxy-7-(2-morpholin-4-yl-ethoxy)-3-(1-phenyl-propyl)-chromen-2-one], the inhibition at 1 µM was 14.2% and the inhibition at 100 µM came out at 103%. In addition, under setting [1], the inhibition at 10 µM worked out at 77.4%.

Regarding `CCC(c1cccc(NC(=O)CCCc2ccccc2)c1)c1c(O)c2ccccc2oc1=O` (centres unmarked) [Example 53, Coumarin, 4-hydroxy-3-[1-[3-[(i-oxo-4-phenylbutyl)amino]phenyl]propyl]-], the inhibition at 1 µM is less than 10% and the inhibition at 100 µM came to 71.8%. Also, the inhibition at 10 µM under setting [1] was less than 10%.

For `CCCC(c1cccc(NC(=O)OCc2ccccc2)c1)c1c(O)c2c(oc1=O)CCCCCC2` (centres unmarked) [Example 375, [3-[1-(5,6,7,8,9,10-Hexahydro-4-hydroxy-2-oxo-2H-cycloocta[b]pyran-3-yl)butyl]phenyl]-carbamic acid, phenylmethyl ester], the inhibition at 0.37 µM under setting [10] was 10.2%. Also, under setting [2], the inhibition at 1.1 µM worked out at 28.5%. The inhibition at 3.3 µM under setting [3] amounted to 57.4%. The inhibition at 10 µM under setting [4] was 79%. Further, the inhibition at 30 µM under setting [5] was 86%.

Take `CCC(c1ccc(OC)cc1)c1c(O)c2ccccc2oc1=O` (centres unmarked) [Example 94, Coumarin, 4-hydroxy-3-[1-(4-methoxyphenyl)propyl]-]: the inhibition at 1 µM was less than 10% and the inhibition at 100 µM was 96.4%. Where the note is “dose 100.000 uM”, the “HIV-1 Protease % Inhib” value was determined as 82.45%. Moreover, the inhibition at 10 µM under setting [1] is 44.7%.

As for `CCC(c1cccc(NC(=O)CCc2ccccc2)c1)c1c(O)c2ccccc2oc1=O` (centres unmarked) [Example 25, 4-Hydroxy-3-[1-[3-[(1-oxo-3-phenylpropyl)amino]phenyl]propyl]-coumarin], the inhibition at 1 µM came to 11.4% and the inhibition at 100 µM is 115%. Where the note is “HIV-1 Protease IC50”, this compound came in with a 50% inhibitory concentration (IC50) of 5.2 µM. The inhibition at 10 µM under setting [1] came to 78.6%.

As to `O=c1oc2c(c(O)c1C(c1cccc(NS(=O)(=O)c3ccccc3Cl)c1)C1CC1)CCCCCC2` (centres unmarked) [Example 293, 2-Chloro-N-[3-[cyclopropyl(5,6,7,8,9,10-hexahydro-4-hydroxy-2-oxo-2H-cycloocta[b]pyran-3-yl)methyl]phenyl]-benzenesulfonamide], the inhibition at 0.123 µM amounted to 54.9%. For the same compound, under setting [6], the inhibition at 0.37 µM is 82.4%. For the same compound, the inhibition at 1.1 µM under setting [7] is 96.8%. Besides, the inhibition at 3.3 µM under setting [8] is 107%. Moreover, the inhibition at 10 µM under setting [1] was determined as 105%. The inhibition at 30 µM under setting [9] was found to be 109%.

The IC50 is the concentration that gives 50% inhibition.
